Experimental data taken from US20080161348A1, “PTX3-GENE EXPRESSION INHIBITOR” (KOWA CO., LTD., priority 2002, published 2008).

What was measured:
[1] = system: PTX3 gene; conditions: constant expression in synovial cells; Clin. Exp. Immunol., 119(1), 196-202 (2000); cited from earlier work
[2] = system: PTX3 gene; experiment: PTX3 gene expression by RT-PCR and agarose gel electrophoresis in HUVEC; format: cell-based, human; conditions: both 8 hours later and 24 hours later
Description: (§1) Two days after inoculation of HUVEC at 3×10^5 cells/10 cm dish, pitavastatin calcium or atorvastatin calcium was added to 1.1 μmol/L and 6.6 μmol/L, respectively. To ascertain possible concentration dependency of PTX3 gene expression suppressing effect of pitavastatin, pitavastatin calcium was also added to 1 μmol/L and 10 μmol/L upon elapsed time of 2 days after inoculation of HUCEC or HCASMC at 3×10^5 cells/10 cm dish. To controls under the respective conditions, dimethyl sulfoxide, a solvent for both of the active ingredients, was added (final concentration: 0.0066 v/v %) Eight or 24 hours after the addition, total RNA was extracted with “ISOGEN” (trade mark, product of NIPPON GENE CO., LTD.). The total RNA was subjected to RT-PCR in a manner known per se in the art, and amplified DNA fragments were subjected to agarose gel electrophoresis to compare expression levels. • Reaction conditions and the like for PT-PCR:
(§2) PT reaction: Conducted using “RNA PCR Core Kit” (trade name, product of Roche Molecular Systems, Inc.).
PCR: Using “Expanded™ High Fidelity PCR System” (trade name, manufactured of Boehringer Mannheim AG), thermal cycling was conducted through 25 cycles according to the following schemes: 95° C. for 1 minute—57° C. for 1 minute—72° C. for 1 minute. Incidentally, as PCR primers, the followings were used in sets: SEQ ID No:1 (Forward) and SEQ ID No: 2 (Reverse) in the case of PTX3; base SEQ ID No:3 (Forward) and SEQ ID No: 4 (Reverse) in the case of GAPDH.

[3] = system: PTX3 gene; experiment: PTX3 gene expression by RT-PCR and agarose gel electrophoresis in HCASMC; format: cell-based, human; conditions: 1 μmol/L and 10 μmol/L, both 8 hours later and 24 hours later
Description: as §1, §2
PCR: Using “Expanded™ High Fidelity PCR System” (trade name, manufactured of Boehringer Mannheim AG), thermal cycling was conducted through 25 cycles according to the following schemes: 95° C. for 1 minute—57° C. for 1 minute—72° C. for 1 minute. […]

[4] = system: PTX3 gene; experiment: PTX3 gene expression analysis by GeneChip array in HUVEC; format: cell-based, human; conditions: 8 hours after addition, control 1113.0
Description: (§3) Two days after inoculation of normal human umbilical vein endothelial cells (HUVEC) or human coronary artery smooth muscle cells (HCASMC) at 3×10^5 cells/10 cm dish, pitavastatin calcium or atorvastatin calcium was added to 1.1 μmol/L and 6.6 μmol/L, respectively. Dimethyl sulfoxide, a solvent for both of the active ingredients, was added to a control (final concentration: 0.0066 v/v %). Eight hours after the addition, total RNA was extracted with “ISOGEN” (trade mark, product of NIPPON GENE CO., LTD.). The following procedures was conducted in accordance with the procedures manual of Affymetrix. Inc. Described specifically, mRNA was isolated from the above-obtained total RNA, and based on the mRNA, cDNA was synthesized. Further, biotin-labeled cRNA was synthesized by in vitro transcription. Subsequent to purification, the biotin-labeled cRNA was subjected to fragmentation by heat treatment to prepare fragmented cRNA for use in a gene expression analysis.
(§4) Gene expression analysis method: The fragmented CRNA was poured into “Hugene Human FL Array” (trade name, product of Affymetrix, Inc.), and hybridization was conducted at 45° C. for 16 hours. […] The information was analyzed by “GENECHIP SOFTWARE” (trade name, product of Affymetrix, Inc.) to compare expression levels.

[5] = system: PTX3 gene; experiment: PTX3 gene expression analysis by GeneChip array in HCASMC; format: cell-based, human; conditions: 8 hours after addition, control 1028.3
Description: as §3, §4

With “IFN-γ: inteferon-γ (IFN-γ), known from literature to suppress PTX3 gene expression” as the compound, how does the “expression of PTX3 gene in synovial cells of a rheumatoid arthritis patient” value [1] read?
Its value is “suppressed”.

For TGF-β, which “expression of PTX3 gene in synovial cells of a rheumatoid arthritis patient” value [1] is on record?
Its value is “suppressed”.

Which results are given for O=C(O)C[C@H](O)C[C@H](O)/C=C/c1c(C2CC2)nc2ccccc2c1-c1ccc(F)cc1 [pitavastatin calcium, (3R,5S, 6 E)-7-[2-cyclopropyl-4-(4-fluorophenyl)-3-quinolyl]-3,5-dihydroxy-6-heptenoic acid]?
concentration dependency of PTX3 gene expression suppression in HUVEC (RT-PCR) ([2]; 1 μmol/L and 10 μmol/L): concentration-dependently suppressed; expression of PTX3 gene in HUVEC compared with the control (RT-PCR) ([2]; 1.1 μmol/L): suppressed; concentration dependency of PTX3 gene expression suppression in HCASMC (RT-PCR) [3]: concentration-dependently suppressed; expression of PTX3 gene in HUVEC ([4]; 1.1 μmol/L): 32.7; expression of PTX3 gene in HCASMC ([5]; 1.1 μmol/L): 452.5

Which results are given for CC(C)c1c(C(=O)Nc2ccccc2)c(-c2ccccc2)c(-c2ccc(F)cc2)n1CC[C@@H](O)C[C@@H](O)CC(=O)O [atorvastatin calcium, (3R,5R)-7-[2-(4-fluorophenyl)-5-isopropyl-3-phenyl-4-phenylcarbamonyl-1H-pyrrol-1-yl]-3,5-dihydroxyheptanoic acid]?
expression of PTX3 gene in HUVEC compared with the control (RT-PCR) ([2]; 6.6 μmol/L): suppressed; expression of PTX3 gene in HUVEC ([4]; 6.6 μmol/L): 39.2; expression of PTX3 gene in HCASMC ([5]; 6.6 μmol/L): 432.1
